Experimental data from article PMC10860144, “Exploring the Dispersion and Electrostatic Components in Arene–Arene Interactions between Ligands and G4 DNA to Develop G4-Ligands” (Journal of Medicinal Chemistry, 2024).

Tested on: template not forming a G4 structure (PEPu24T mut)
Experiment: Taq polymerase stop (primer extension) assay, non-G4 template
Format: biochemical
Text: To challenge all the synthesized compounds (2–11 and 25–29) in a more intricate context, we conducted a Taq polymerase stop assay to evaluate their capacity to impede DNA synthesis through G4 stabilization. In this assay, we compared the progress of the Taq DNA polymerase along two distinct DNA templates: one with a G4 structure (Figure 5) and another serving as a non-G4 control (Figure S21). If an external species (e.g., G4 ligand) binds and stabilizes the G4 structure, the polymerase will be partially halted. The extent of this DNA polymerase stalling is dependent on the ability of the compound to stabilize the G4 on the DNA template. The increased G4 stabilization can be detected as a reduction in the amount of newly synthesized DNA that has reached the end of the DNA template (full-length/end-product). Analysis of these shorter terminated DNA products will give information about the precise location of the DNA polymerase stalling with a single nucleotide resolution. If the ligand imposes little to no stabilization or binding, the G4 is readily resolved by the DNA polymerase, and no difference in the amount of DNA end-product can therefore be expected upon the addition of the compound. […]
The images were quantified using ImageJ 1.53e software and the percentage of full-length product compared to a sample without compound was calculated. […]

**Q.** How did the “concentration at which an effect on the Taq polymerase was observed in the absence of a G4 structure” value turn out when `Cc1cc(C)c2nc(Nc3nc(C)cc(NCCCN(C)C)n3)nc(C)c2c1` [Compound 5, N4-(3-(Dimethylamino)propyl)-6-methyl-N2-(4,6,8-trimethylquinazolin-2-yl)pyrimidine-2,4-diamine] was run?
**A.** Its value is greater than 4 µM.
